Results taken from patent publication US20220162191A1, “SMALL MOLECULE MODULATORS OF IL-17” (LEO PHARMA A/S, priority 2019, published 2022).

These compounds were tested against T1, human IL-17AA (Homo sapiens, UniProt Q16552) (assay: IL-8 release assay in human epithelial keratinocytes adult (HEKa)). Settings: 3 ng/ml human IL-17AA + 10 ng/ml human TNFalpha, 68-72 h, IL-8 by HTRF, read-out: Rel EC50 L-8 release assay.
T1 construct: host or cells: HEK (human embryonic kidney) cells
T1 sequence (Q16552 24-155) 1: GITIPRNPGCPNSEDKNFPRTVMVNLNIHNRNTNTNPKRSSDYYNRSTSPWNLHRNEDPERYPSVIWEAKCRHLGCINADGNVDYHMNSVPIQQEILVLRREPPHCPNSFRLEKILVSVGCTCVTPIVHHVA
T1 sequence (Q16552 24-155) 2: T1 sequence (Q16552 24-155) 1
Format: cell-based
In short: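 Adult human keratinocytes in Epilife with HKGS minus hydrocortisone, treated with compound then stimulated with final 3 ng/ml HEK-derived human IL-17AA plus 10 ng/ml TNF-alpha for 68–72 h at 37 °C; TNF-alpha alone defines 100% inhibition. Secreted IL-8 by HTRF; relative IC50 and Emax from four-parameter fits.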

| Structure (SMILES) | EC50 [nM] |
| --- | --- |
| Cc1n[nH]c(C)c1-c1ccc(NC(=O)[C@@H](NC(=O)C2(F)CC2)[C@@H]2CCc3ccc(-c4cnnc(C5CC5)c4)cc32)cc1 [Example 381, N-[(1S)-1-[(1R)-6-(6-cyclopropylpyridazin-4-yl)indan-1-yl]-2-[4-(3,5-dimethyl-1H-pyrazol-4-yl)anilino]-2-oxo-ethyl]-1-fluoro-cyclopropanecarboxamide] | 100 to 1000 |
| CNC1CN(c2cc(-c3ccc(Cl)c(CC(NC(=O)c4ccnn4C)C(=O)Nc4ccc(-c5cncn5C)cc4)c3)ccn2)C1 (stereo not shown) [Example 196, N-[1-[[2-chloro-5-[2-[3-(methylamino)azetidin-1-yl]-4-pyridyl]phenyl]methyl]-2-[4-(3-methylimidazol-4-yl)anilino]-2-oxo-ethyl]-2-methyl-pyrazole-3-carboxamide] | 100 to 1000 |
| Cn1cncc1-c1ccc(NC(=O)C(Cc2cc(-c3ccnc(N4CCC4CO)c3)ccc2Cl)NC(=O)c2ccnn2C)cc1 (stereo not shown) [Example 187, N-[1-[[2-chloro-5-[2-[2-(hydroxymethyl)azetidin-1-yl]-4-pyridyl]phenyl]methyl]-2-[4-(3-methylimidazol-4-yl)anilino]-2-oxo-ethyl]-2-methyl-pyrazole-3-carboxamide] | 100 to 1000 |
| Cc1n[nH]cc1-c1ccc(NC(=O)C(NC(=O)OC2CC2)C(c2ccccc2)c2cccc(-c3ccc(=O)n(C(C)C)c3)c2)cc1 (single isomer, unassigned; diastereomer 3) [Example 244, cyclopropyl N-[1-[[3-(1-isopropyl-6-oxo-3-pyridyl)phenyl]-phenyl-methyl]-2-[4-(3-methyl-1H-pyrazol-4-yl)anilino]-2-oxo-ethyl]carbamate (Diastereomer 3)] | > 1000 |
| Cn1cncc1-c1ccc(NC(=O)[C@H](Cc2cc(-c3ccnc(C(C)(O)C4CC4)c3)ccc2Cl)NC(=O)C2(F)CC2)cc1 (stereo partly drawn) [Example 142, N-[(1S)-1-[[2-chloro-5-[2-(1-cyclopropyl-1-hydroxy-ethyl)-4-pyridyl]phenyl]methyl]-2-[4-(3-methylimidazol-4-yl)anilino]-2-oxo-ethyl]-1-fluoro-cyclopropanecarboxamide] | < 100 |
| Cc1nocc1C(=O)N[C@@H](Cc1cc(-c2ccnc(C(O)C(C)(C)C)c2)ccc1Cl)C(=O)Nc1ccc(-c2nncn2C)cc1 (stereo partly drawn) [Example 81, N-[(1S)-1-[[2-chloro-5-[2-(1-hydroxy-2,2-dimethyl-propyl)-4-pyridyl]phenyl]methyl]-2-[4-(4-methyl-1,2,4-triazol-3-yl)anilino]-2-oxo-ethyl]-3-methyl-isoxazole-4-carboxamide] | 100 to 1000 |
| Cc1n[nH]c(C)c1-c1ccc(NC(=O)[C@H](Cc2cc(-c3cccc(CN)c3)ccc2Cl)NC(=O)c2ccnn2C)cc1 [Example 61, N-[(1S)-1-[[5-[3-(aminomethyl)phenyl]-2-chloro-phenyl]methyl]-2-[4-(3,5-dimethyl-1H-pyrazol-4-yl)anilino]-2-oxo-ethyl]-2-methyl-pyrazole-3-carboxamide] | 100 to 1000 |
| Cc1n[nH]c(C)c1-c1ccc(NC(=O)[C@H](Cc2cc(-c3ccnc(N4C[C@@H]5C[C@H]4CN5)c3)ccc2Cl)NC(=O)C2(F)CC2)cc1 [Example 223, N-[(1S)-1-[[2-chloro-5-[2-[(1S,4S)-2,5-diazabicyclo[2.2.1]heptan-2-yl]-4-pyridyl]phenyl]methyl]-2-[4-(3,5-dimethyl-1H-pyrazol-4-yl)anilino]-2-oxo-ethyl]-1-fluoro-cyclopropanecarboxamide] | < 100 |
| Cc1nc(-c2ccc3c(c2)[C@H]([C@H](NC(=O)C2(F)CC2)C(=O)Nc2ccc(-c4c(C)n[nH]c4C)cc2)CC3)cc(N2C[C@@H]3C[C@H]2CO3)n1 [Example 366, N-[(1S)-2-[4-(3,5-dimethyl-1H-pyrazol-4-yl)anilino]-1-[(1R)-6-[2-methyl-6-[(1S,4S)-2-oxa-5-azabicyclo[2.2.1]heptan-5-yl]pyrimidin-4-yl]indan-1-yl]-2-oxo-ethyl]-1-fluoro-cyclopropanecarboxamide] | 100 to 1000 |
| Cc1n[nH]c(C)c1-c1ccc(NC(=O)[C@H](Cc2cc(-c3ccnc(N4CCC5(CC4)COC5)n3)ccc2Cl)NC(=O)C2(F)CC2)cc1 [Example 317, N-[(1S)-1-[[2-chloro-5-[2-(2-oxa-7-azaspiro[3.5]nonan-7-yl)pyrimidin-4-yl]phenyl]methyl]-2-[4-(3,5-dimethyl-1H-pyrazol-4-yl)anilino]-2-oxo-ethyl]-1-fluoro-cyclopropanecarboxamide] | < 100 |

The remaining lines, values ahead:

| EC50 [nM] | Structure (SMILES) |
| --- | --- |
| 100 to 1000 | Cc1n[nH]cc1-c1ccc(NC(=O)C(NC(=O)c2ccnn2C)C(c2ccccc2)c2cccc(-c3ccc(=O)n(C(C)C)c3)c2)cc1 (single isomer, unassigned; diastereomer 4) [Example 238, N-[1-[[3-(1-isopropyl-6-oxo-3-pyridyl)phenyl]-phenyl-methyl]-2-[4-(3-methyl-1H-pyrazol-4-yl)anilino]-2-oxo-ethyl]-2-methyl-pyrazole-3-carboxamide (Diastereomer 4)] |
| < 100 | Cc1n[nH]c(C)c1-c1ccc(NC(=O)[C@H](Cc2cc(-c3ccnc(N4CCSCC4)n3)ccc2Cl)NC(=O)C2(F)CC2)cc1 [Example 314, N-[(1S)-1-[[2-chloro-5-(2-thiomorpholinopyrimidin-4-yl)phenyl]methyl]-2-[4-(3,5-dimethyl-1H-pyrazol-4-yl)anilino]-2-oxo-ethyl]-1-fluoro-cyclopropanecarboxamide] |
| 100 to 1000 | CC(C)n1cc(-c2ccc(Cl)c(CC(NC(=O)c3ccnn3C)C(=O)Nc3ccc(-c4nncn4C)c(O)c3)c2)ccc1=O (stereo not shown) [Example 69, N-[1-[[2-chloro-5-(1-isopropyl-6-oxo-3-pyridyl)phenyl]methyl]-2-[3-hydroxy-4-(4-methyl-1,2,4-triazol-3-yl)anilino]-2-oxo-ethyl]-2-methyl-pyrazole-3-carboxamide] |
| < 100 | Cc1n[nH]c(C)c1-c1ccc(NC(=O)[C@@H](NC(=O)c2ccnn2C)[C@@H]2CCc3ccc(-c4cnn(C(C)(C)C)c4)cc32)cc1 [Example 4, N-[(1S)-1-[(1R)-6-(1-tert-butylpyrazol-4-yl)indan-1-yl]-2-[4-(3,5-dimethyl-1H-pyrazol-4-yl)anilino]-2-oxo-ethyl]-2-methyl-pyrazole-3-carboxamide] |
| 100 to 1000 | Cn1cnnc1-c1ccc(NC(=O)C(Cc2cc(-c3cccc(C(C)(C)O)c3)ccc2Cl)NC(=O)c2ccnn2C)cc1 (stereo not shown) [Example 109, N-[1-[[2-chloro-5-[3-(1-hydroxy-1-methyl-ethyl)phenyl]phenyl]methyl]-2-[4-(4-methyl-1,2,4-triazol-3-yl)anilino]-2-oxo-ethyl]-2-methyl-pyrazole-3-carboxamide] |
| < 100 | Cc1ncn(C)c1-c1ccc(NC(=O)[C@H](Cc2cc(-c3ccnc(N4CCOCC4)c3)ccc2Cl)NC(=O)C2(F)CC2)cc1 [Example 224, N-[(1S)-1-[[2-chloro-5-(2-morpholino-4-pyridyl)phenyl]methyl]-2-[4-(3,5-dimethylimidazol-4-yl)anilino]-2-oxo-ethyl]-1-fluoro-cyclopropanecarboxamide] |
| > 1000 | CN(C)C(=O)c1cc(-c2ccc(Cl)c(CC(NC(=O)c3ccnn3C)C(=O)Nc3ccc(-c4nncn4C)cc3)c2)ccc1O (stereo not shown) [Example 167, N-[1-[[2-chloro-5-[3-(dimethylcarbamoyl)-4-hydroxy-phenyl]phenyl]methyl]-2-[4-(4-methyl-1,2,4-triazol-3-yl)anilino]-2-oxo-ethyl]-2-methyl-pyrazole-3-carboxamide] |
| 100 to 1000 | Cc1ncn(C)c1-c1ccc(NC(=O)[C@@H](NC(=O)c2ccnn2C)[C@@H]2CCCc3ccc(-c4cccc(C(C)(C)N)c4)cc32)cc1 [Example 50, N-[(1S)-1-[(1R)-7-[3-(1-amino-1-methyl-ethyl)phenyl]tetralin-1-yl]-2-[4-(3,5-dimethylimidazol-4-yl)anilino]-2-oxo-ethyl]-2-methyl-pyrazole-3-carboxamide] |
| 100 to 1000 | Cc1cnn(C)c1-c1ccc(NC(=O)[C@H](Cc2cc(-c3ccc(=O)n(C(C)C)c3)ccc2Cl)NC(=O)c2ccon2)cc1 [Example 337, N-[(1S)-1-[[2-chloro-5-(1-isopropyl-6-oxo-3-pyridyl)phenyl]methyl]-2-[4-(2,4-dimethylpyrazol-3-yl)anilino]-2-oxo-ethyl]isoxazole-3-carboxamide] |
| 100 to 1000 | Cc1n[nH]c(C)c1-c1ccc(NC(=O)[C@@H](NC(=O)C2(F)CC2)[C@@H]2CCCc3ccc(-c4ccc(CN5C[C@H]6C[C@@H]5CO6)cc4)cc32)cc1 [Example 390, N-[(1S)-2-[4-(3,5-dimethyl-1H-pyrazol-4-yl)anilino]-1-[(1R)-7-[4-[[(1R,4R)-2-oxa-5-azabicyclo[2.2.1]heptan-5-yl]methyl]phenyl]tetralin-1-yl]-2-oxo-ethyl]-1-fluoro-cyclopropanecarboxamide] |
| 100 to 1000 | Cc1ncn(C)c1-c1ccc(NC(=O)[C@H](Cc2cc(-c3ccnc(N4CCN(C)CC4)c3)ccc2Cl)NC(=O)c2ccnn2C)cc1 [Example 213, N-[(1S)-1-[[2-chloro-5-[2-(4-methylpiperazin-1-yl)-4-pyridyl]phenyl]methyl]-2-[4-(3,5-dimethylimidazol-4-yl)anilino]-2-oxo-ethyl]-2-methyl-pyrazole-3-carboxamide] |
| 100 to 1000 | CC(C)Oc1cccc(-c2ccc(Cl)c(CC(NC(=O)c3ccnn3C)C(=O)Nc3ccc(-c4nncn4C)cc3)c2)c1 (stereo not shown) [Example 122, N-[1-[[2-chloro-5-(3-isopropoxyphenyl)phenyl]methyl]-2-[4-(4-methyl-1,2,4-triazol-3-yl)anilino]-2-oxo-ethyl]-2-methyl-pyrazole-3-carboxamide] |
